Assays:
[1] = target: T1, transketolase (TK) in colon carcinoma HCT116 cells (Homo sapiens, UniProt P29401); test: Cellular transketolase inhibition assay in HCT116; type: cell-based; details: colon carcinoma HCT116, thiamine-free DMEM, 48 h after compound treatment, TK activity in lysate
T1 construct: endogenous in cells; host or cells: HCT116
T1 sequence (P29401 1-623): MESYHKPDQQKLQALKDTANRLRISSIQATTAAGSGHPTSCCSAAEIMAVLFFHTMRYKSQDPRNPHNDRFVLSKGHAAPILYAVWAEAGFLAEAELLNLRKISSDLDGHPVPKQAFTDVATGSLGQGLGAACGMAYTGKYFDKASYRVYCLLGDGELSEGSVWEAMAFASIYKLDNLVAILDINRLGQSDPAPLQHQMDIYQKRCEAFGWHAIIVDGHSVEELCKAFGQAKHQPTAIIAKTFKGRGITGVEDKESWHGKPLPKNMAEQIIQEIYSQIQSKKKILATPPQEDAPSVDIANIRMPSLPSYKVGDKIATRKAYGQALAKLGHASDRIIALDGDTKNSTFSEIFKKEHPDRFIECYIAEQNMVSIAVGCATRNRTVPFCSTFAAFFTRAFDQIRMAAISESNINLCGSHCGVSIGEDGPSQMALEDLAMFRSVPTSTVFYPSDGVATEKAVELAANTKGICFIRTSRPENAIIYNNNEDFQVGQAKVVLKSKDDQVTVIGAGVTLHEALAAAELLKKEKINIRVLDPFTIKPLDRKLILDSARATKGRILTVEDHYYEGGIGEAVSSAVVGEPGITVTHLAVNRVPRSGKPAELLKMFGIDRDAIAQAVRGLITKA
Description: Determining Inhibition Constants of TPP Mimetics in Cellular Assay
Log-phase cells were trypsinized, washed and resuspended in thiamine-free DMEM. Optimization of the initial cell counts was carried out for each cell line prior to IC50 measurements. […] Using this initial cell count, IC50 could be monitored for six days.
Media containing 8,000 cells (95 μl) were used to seed individual wells in a 96-well clear-bottom cell cultured-treated sterile plate. Inhibitor compounds were dissolved in 100% DMSO as 10 mM solutions. Serial dilutions were then made in 100% DMSO to make up a 100× stock, then diluted to 20× in double-deionized H2O (ddH2O). Twenty-four hours after seeding, 5 μl of 20× inhibitor compound stock solution was added to the cells so that the final concentration of DMSO was 1%. Media were changed after 24 hours. Forty-eight hours after inhibitor compound treatment, the plates were inverted to remove media and blotted on a paper towel. The plates were then either subjected to enzymatic reactions immediately or were frozen at −20° C. for future assays.
Lysis buffer (20 mM HEPES, pH 7.5, 1 mM EDTA, 0.2 g/l Triton X-100® and 0.2 g/L sodium deoxycholate, supplemented with 1 mM DTT and 1 mM PMSF just before use, 80 μl) were added to each well of the assay plate and allow cell lysis at RT with shaking. Then 15 ul of 5× assay buffer containing final concentrations of 50 mM HEPES, 40 mM KCl, 2.5 mM MgCl2, 5 mM NaArsenate, 1 mM NAD, 2 unit/ml glyceraldehyde-3-phosphate dehydrogenase (GAPDH) was added to the 80 ul of lysate. Reaction kinetics were monitored on a fluorescent plate reader to allow any possible background activity via GAPDH to burn out. Then 5 ul of substrate mix containing final concentrations of 0.5 mM ribose-5-phosphate and 0.5 mM xylulose-5-phosphate was added to initiate the reaction. Monitor reaction kinetics were monitored using a fluorescent plate reader and the slope of the initial linear range was recorded as the velocity of the reaction (FU/min). Enzymatic inhibition was expressed as percent of control wells that were not treated with compounds. The values (y) were plotted as function of the log concentration (x) and fitted to a sigmoidal dose-response curve with variable slopes that bears the equation: y-bottom+(top-bottom)/(1+10̂((log EC50−x)*hillslope)).

[2] = target: T2, transketolase (purified TK apo enzyme) (Homo sapiens, UniProt P29401); test: TPK-apoTK coupled cell-free TK inhibition assay (pyrophosphorylated compounds competing with TPP); type: biochemical; details: compound enzymatically pyrophosphorylated by TPK1; 100 nM TK, 20 μM TPP
T2 sequence (P29401 1-623): T1 sequence (P29401 1-623)
Description: Determining Inhibition Constants of TPP Mimetics in Cell Free Assay (Purified TK apo Enzyme) Compounds scored as TPK1 substrates were then enzymatically converted to pyrophosphate and assessed for an ability to compete with TPP in inhibiting TK activity. The TK inhibition assay was carried out as follows. The pyrophosphorylation reaction mix consisted of 50 mM HEPES, 1 mM DTT, 1 mM MgCl2, pH 8.0, 1 to 10 mM thiamine analog, and 40 mM Mg-ATP. TKP1 (46.2 μg) was added in 10 μL aliquots every hour for 5 hours. The reaction mix was then incubated overnight at 4° C. TPK1 was removed by ultra-filtration using a 10,000 MWCO filter. The extent of reaction was monitored as described above. […] The above reaction mix (40 μL) was placed in a well of a Costar 3695 half-area plate and pre-incubated at room temperature for 30 min. It was then incubated for 2 minutes at 30° C. The reaction was initiated with the addition of 10 μL pentose phosphates (xylulose 5-phosphate and ribose 5-phosphate) with a final concentration of 0.5 mM. The reaction was monitored at 340 nm using a Molecular Devices Spectramax M2 plate reader. “TPK-TK” in the second column in Table 1 designates the thiamine pyrophosphate kinase/transketolase coupled reaction.

Row | SMILES | IC50 [1] | IC50 [2]
1 | Cc1c(CCO)sc[n+]1Cc1ccccc1 | > 100000 nM | 336 nM
2 | Cc1c(CCO)sc[n+]1Cc1ccccc1[N+](=O)[O-] | > 100000 nM | 109 nM
3 | Cc1c(CCO)sc[n+]1Cc1ccccc1N | > 100000 nM | 198 nM
4 | Cc1c(CCO)sc[n+]1Cc1cc([N+](=O)[O-])ccc1O | > 100000 nM | 
5 | Cc1c(CCO)sc[n+]1Cc1ccc(C(=O)O)cc1 | > 100000 nM | 
6 | CC(=O)Nc1ccc(C[n+]2csc(CCO)c2C)cc1 | 24300 nM | 8.83 nM
7 | Cc1c(CCO)sc[n+]1Cc1ccccn1 | > 100000 nM | 
8 | Cc1c(CCO)sc[n+]1Cc1cccc(N2C(=O)c3ccccc3C2=O)n1 | > 100000 nM | 
9 | Cc1c(CCO)sc[n+]1Cc1cccnc1 | 731 nM | 70.7 nM
10 | Cc1c(CCO)sc[n+]1Cc1cccnc1C#N | > 33000 nM | 123 nM
11 | Cc1cnc(N)c(C[n+]2csc(CCO)c2C)c1 | 862 nM | 109 nM
12 | Cc1c(CCO)sc[n+]1Cc1ccc(N)nc1 | 1610 nM | 6.95 nM
13 | Cc1c(CCO)sc[n+]1Cc1ccc(N2C(=O)c3ccccc3C2=O)nc1 | 3150 nM | 143 nM
14 | Cc1cncc(C[n+]2csc(CCO)c2C)c1 | 37800 nM | 
15 | Cc1c(CCO)sc[n+]1Cc1cncc(C#N)c1 | 119000 nM | 294 nM
16 | COC(=O)c1cncc(C[n+]2csc(CCO)c2C)c1 | > 100000 nM | 382 nM
17 | Cc1c(CCO)sc[n+]1Cc1cnccc1N | 23900 nM | 64.2 nM
18 | Cc1ccc(C[n+]2csc(CCO)c2)c(N)n1 | 9540 nM | 29.1 nM
19 | Cc1cc(C)c(C[n+]2csc(CCO)c2)c(N)n1 | 12500 nM | 
20 | CC(=O)Nc1ccc(C[n+]2csc(CCO)c2C)c(N)n1 | 803 nM | 22.5 nM

Row | SMILES | IC50 [1] | IC50 [2]
21 | COc1ccc(C[n+]2csc(CCO)c2C)c(NC(C)=O)n1 | 170000 nM | 
22 | Cc1ccc(C[n+]2cc(CCO)sc2C)c(N)n1 | 489 nM | 35.6 nM
23 | Cc1cc(C)c(C[n+]2cc(CCO)sc2C)c(N)n1 | 26300 nM | 
24 | Cc1ccc(C[n+]2c(-c3ccc4c(c3)OCO4)sc(CCO)c2C)c(N)n1 | 25500 nM | 
25 | Cc1ccc(C[n+]2c(Cc3cccnc3)sc(CCO)c2C)c(N)n1 | 838 nM | 
26 | CCc1c(CCO)sc[n+]1Cc1ccc(C)nc1N | 1720 nM | 
27 | Cc1ccc(C[n+]2csc([C@@H](O)CO)c2C)c(N)n1 | 2200 nM | 26.8 nM
28 | Cc1cc(C)c(C[n+]2csc(C(O)CO)c2C)c(N)n1 (stereo not shown) | 3160 nM | 90 nM
29 | Cc1ccc(C[n+]2csc(CCCO)c2C)c(N)n1 | 1030 nM | 
30 | Cc1ccc(C[n+]2csc(CCC#N)c2C)c(N)n1 | 2170 nM | 
31 | COC(=O)CCc1sc[n+](Cc2ccc(C)nc2N)c1C | 2330 nM | 
32 | Cc1c(CCO)sc[n+]1Cc1ccncc1 | > 100000 nM | 421 nM
33 | Cc1c(CCO)sc[n+]1Cc1cncnc1 | > 100000 nM | 1430 nM
34 | Cc1ncc(C[n+]2c(C(C)O)sc(CCO)c2C)c(N)n1 (stereo not shown) | > 100000 nM | 851 nM
35 | COc1ncc(CO)c(N)n1 | > 100000 nM | 
36 | Cc1ncc(C[n+]2csc(CCO)c2C)c(=O)[nH]1 | 76 nM | 
37 | Cc1c(CCO)sc[n+]1Cc1nccnc1N | 16500 nM | 61.2 nM
38 | Cc1cc(C[n+]2csc(CCO)c2C)no1 | 5150 nM | 
39 | Cc1c(CCO)sc[n+]1Cc1ccsc1C#N | > 33000 nM | 138 nM
40 | Cc1c(CCO)sc[n+]1Cc1ccsc1C(N)=O | > 33000 nM | 

Further compounds by falling IC50 [1], results first:

Row | IC50 [1] | IC50 [2] | SMILES
41 | 471 nM | 387 nM | Cc1c(CCO)sc[n+]1Cc1ccc(C(F)(F)F)nc1
42 | 408 nM | 15.2 nM | Cc1cnc(C[n+]2csc(CCO)c2C)c(N)n1
43 | 354 nM | 57.1 nM | Cc1c(CCO)sc[n+]1Cc1ccc(C#N)nc1N
44 | 269 nM | 53.4 nM | Cc1ccc(C[n+]2csc(C(O)CO)c2C)c(N)n1 (stereo not shown)
45 | 237 nM |  | Cc1ccc(C[n+]2c(C)sc(CO)c2C)c(N)n1
46 | 236 nM | 25.1 nM | Cc1ccc(C[n+]2csc(CCO)c2CO)c(N)n1
47 | 214 nM |  | Cc1ncc(C[n+]2c(C)sc(CCO)c2C)c(N)n1
48 | 156 nM |  | Cc1c(CCO)sc[n+]1Cc1ccc(Cl)nc1N
49 | 131 nM | 33.8 nM | Cc1cc(C)c(C[n+]2csc(CCO)c2C)c(N)n1
50 | 119 nM | 104 nM | Cc1c(CCO)sc[n+]1Cc1ccc(C(F)(F)F)nc1N
51 | 111 nM | 36.5 nM | Cc1c(CCO)sc[n+]1Cc1cccnc1N
52 | 74 nM |  | CCc1ccc(C[n+]2csc(CCO)c2C)c(N)n1
53 | 62 nM | 28.1 nM | Cc1ccc(C[n+]2csc([C@H](O)CO)c2C)c(N)n1
54 | 49 nM | 24.6 nM | Cc1ccc(C[n+]2c(C)sc(CCO)c2C)c(N)n1 [drawing 55]
55 | 34 nM | 91.4 nM | Cc1ccc(C[n+]2c(C(C)O)sc(CCO)c2C)c(N)n1 (stereo not shown)
56 | 31 nM |  | Cc1ccc(C[n+]2c(C)sc(CCO)c2C)c(N)n1 [drawing 48]
57 | 30 nM | 22 nM | Cc1ccc(C[n+]2csc(CCO)c2C)c(N)n1
58 | 26 nM | 75.5 nM | CCc1sc(CCO)c(C)[n+]1Cc1ccc(C)nc1N
59 | 6 nM |  | CC(=O)OCCc1sc[n+](Cc2ccc(C)nc2N)c1C

Source: patent US20090209554A1, “Thiazoliums as transketolase inhibitors” (ARRAY BIOPHARMA INC., priority 2004, published 2009)
